Patent US20110117164A1, “Use of Additive Sites to Control Nitric Oxide Release from Nitric Oxide Donors Contained within Polymers” (priority 2004, published 2011)

Key:
[1] = Air stability of isolated intramolecular diazeniumdiolates; assay type: physicochemical
Method: The reaction of NO with 1f yielded a diazeniumdiolate (as determined by UV) that was initially air-stable, but decomposed after 12 hours even with storage at −20° C. […] Thus, the most air-stable intramolecular diazeniumdiolate that could be isolated was that of diamine 1e. Air stable bis-diazeniumdiolates of 1f and 1g may, however, be prepared when an exogenous base such as sodium methoxide is present in the reaction mixture.

[2] = in vivo; cited from earlier work
[3] = Thermal gravimetric analysis under nitrogen (thermal stability of diazeniumdiolates); assay type: physicochemical; settings: nitrogen atmosphere
[4] = for t1/2 ("apparent" t1/2 and t1/2): buffer, pH 7.4; for k: first order decomposition, PBS buffer, pH 7.4, 37° C., n > 3
Text: UV-vis spectra were monitored on a Beckman DU 640B spectrophotometer.

[5] = test system: cells after vascular injury; settings: cited from earlier work
[6] = NO release from polymer films/coatings containing NO donor in PBS buffer at 37° C. by chemiluminescence; assay type: physicochemical; settings: ~5 wt. % in PVC film plasticized with DOS (1:2), PBS buffer, 37° C., no KTpClPB
Method: Thermal stability of diazeniumdiolates. […] Kinetics. […] Use in Hydrophobic Systems.
In the absence of the KTpClPB, NO release decreases dramatically after approximately 1 hour. […] The decrease in NO release observed is believed to result from an increase in the pH within the organic polymer film, which decreases the decomposition rate of lipophilic diazeniumdiolates. As water diffuses into the film initiating NO release, secondary amine sites result. The secondary amine sites have a higher pKa than water and therefore deprotonate water to form hydroxide ions. The basic microdomain environment that results within the polymer, in turn, slows further decomposition of the remaining diazeniumdiolates that would generate NO. This retardation may occur as a result of the organic ammonium hydroxide microphases within the polymer, which in turn serves to stabilize the remaining diazeniumdiolates.
FT-IR were collected on Perken Elmer Spectrum VX. […] Elemental analyses were performed. Reagents. […] NO was purchased from Matheson Gases. […] General NO Addition Procedure. […] The products were finally collected and dried under vacuum. Molar Extinction Coefficients. […] The maximum wavelength and absorbance were collected. […] Kinetics Studies. […] The NO released was measured using chemiluminescence. […] Preparation of Polymer Films Containing Diazeniumdiolates. […] The membranes were covered and allowed to cure overnight. […] Polymerization to Form Boc-protected Diamine Copolymer.
General Procedure for Deprotection to Form Diamine Copolymer (c). 35 mg of the copolymer (b) was dissolved in 2 mL of dichloromethane and then 200 μL of TFA (trifluoroacetic acid) was added dropwise. The solution was stirred at room temperature for about 3 hours. The reaction mixture was diluted with 20 mL of dichloromethane, and the organic phase was then washed with sodium bicarbonate, water, and brine, and was dried with sodium sulfate. The solvent was evaporated and the resulting copolymer was dried under vacuum overnight. ^1H-NMR was performed to confirm the structure and actual composition of the copolymer. General Procedure for NO Loading to Form Polymer-Based NO Donor (d). 20 mg of the deprotected copolymer (c) was dissolved in 3 mL of dry THF and placed in a high pressure reactor with a stirring bar, and flushed with argon for about 10 minutes. 100% excess of sodium methoxide (with respect to free amine sites) was added and the reactor was closed. The reactor was purged with argon again for several times (e.g. ten times) over a 1 hour period and was charged with NO at 80 psi. The reaction mixture was stirred for 72 hours at room temperature. After the reaction was complete, the copolymer was precipitated with dry hexane under argon. The remaining solvent was removed using a vacuum, and the diazeniumdiolated copolymers (d) were examined by UV-Vis spectrum as well as NOA. This resulting copolymer was stored in sealed vials charged with argon in a freezer. Preparation of Polymer Films Containing Polymer-Based No Donor. Polymer membranes containing the polymer-based NO donor was prepared by dissolving 60.8 mg poly(vinyl chloride) (PVC), 30.4 mg dioctyl sebacate (DOS), and 9.1 mg poly(lactide-co-glycolide) (50:50) (PLGA 50:50) in 1.5 mL of freshly distilled tetrahydrofuran. […] A trilayer film configuration is employed to fabricate films. […] Four hours later the polymer cocktail was cast on top of the PVC layer. After another 4 hours, the PVC solution was cast again as a finish layer. The membrane was covered and allowed to cure overnight. Polymer films containing no additives were prepared in a similar manner. […] NO Release Measurements by Chemiluminescence. All NO measurements were performed using a Sievers Nitric Oxide Analyzer (NOA), model 280. The instrument was calibrated before each experiment using an internal two-point calibration (zero gas and 45 PPM). The flow rate was set to 200 mL/min with a cell pressure of 5.4 torr and an oxygen pressure of 6.0 psig. […]

thrombus formation = settings: dispersed in a silicone rubber matrix; cited from earlier work
platelet activity = settings: within a polymer coating on the inner walls of extracorporeal circuits; cited from earlier work
[7] = donor and its diamine precursor; back react to potentially toxic nitrosamines; cited from earlier work

| Compound | TNO loss (stable up to) [3] [°C] | t1/2 ("apparent" t1/2 and t1/2) [4] [min] | k [4] [s⁻¹] | also measured |
| --- | --- | --- | --- | --- |
| CCCCCCN(CCCCCC)CCCCCCN [Compound 1f, N,N-dihexylhexamethylene diamine] |  |  |  | time to decomposition of the initially air-stable diazeniumdiolate ([1]; even with storage at −20° C.): 12 h |
| O=C([O-])C1CCCN1[N+]([O-])=N[O-].[Na+].[Na+] (centres unmarked) [PROLI/NO] |  |  |  | effect when infused into blood [2]: relieve muscle spasms |
| CCCNCCCCCCN(CCC)/[N+]([O-])=N/O [Compound 2c, (Z)-1-{N-Propyl-N-[6-(N-propylammoniohexyl)amino]}-diazen-1-ium-1,2-diolate] | 104 | 5.32 ± 0.383 | 0.0022 ± 0.0001 |  |
| CCCCCCCCCCCCN(CCCCCCN)CCCCCCCCCCCC [Compound 1g, N,N-didodecylhexamethylene diamine] |  |  |  | air stability during work-up ([1]; presence of oxygen during the work-up procedure): immediately decomposes |
| CCCCCNCCCCCCN(CCCCC)/[N+]([O-])=N/O [Compound 2e, (Z)-1-{N-Pentyl-N-[6-(N-pentylammoniohexyl)amino]}-diazen-1-ium-1,2-diolate] | 104 | 4.65 ± 0.517 | 0.0025 ± 0.0001 |  |
| NCCN(CCN)/[N+]([O-])=N/O [DETA/NO] |  |  |  | effect on cell proliferation after vascular injury [5]: substantially suppress overproliferation of cells after vascular injury |
| CNCCCCCCN(C)/[N+]([O-])=N/O [Compound 2a, (Z)-1-[N-methyl-N-[6-(N-methylammoniohexyl)amino]]-diazen-1-ium-1,2-diolate] | 104 | 1.12 ± 0.012 | 0.010 ± 0.0001 | total NO release profile from film without additive [6]: releases all of its NO in a short period of time; effect on thrombus formation (thrombus formation): prevent thrombus formation on the surface of intravascular sensors; effect on platelet activity (platelet activity): greatly reduce platelet activity; leaching from polymer matrix [7]: tend to leach from the surface of the polymer matrix |
| CCNCCCCCCN(CC)/[N+]([O-])=N/O [Compound 2b, (Z)-1-{N-Ethyl-N-[6-(N-ethylammoniohexyl)amino]}diazen-1-ium-1,2-diolate] | 104 | 5.78 ± 0.433 | 0.0020 ± 0.0001 |  |
